The text below walks through data of ChEMBL document CHEMBL3994670, “Therapeutic Advantage of the Positive Allosteric Modulators of the GABA-B Receptor” (ACS Med Chem Lett, 2017).

As usually defined, the EC50 is the concentration needed to bring the measured effect to its halfway point.

SMILES strings stand for the structures.

This assay is described as follows: Positive allosteric modulation of GABA-B receptor in rat brain cortex membranes assessed as increase in GABA-induced [35S]GTPgammaS binding after 60 mins by liquid scintillation counting method. The class given is cell membranes.
For the molecule `COc1ccc(C(N)=O)cc1-c1nn(C(C)c2ccc(Cl)cc2)c(=O)c2c(C)noc12` (stereo unspecified), the EC50 came to 17 nM.

Regarding `COc1ccc(NC(C)=O)cc1-c1nn([C@@H](C)c2ccc(Cl)cc2)c(=O)c2c(C3CC3)noc12`, the concentration giving a half-maximal response (EC50) worked out at 51 nM.

Consider `Cc1noc2c(-c3cncc(F)c3)nn(C(C)c3ccc(Cl)cc3)c(=O)c12` (stereo unspecified), for which the EC50 worked out at 2690 nM.

For the molecule `CC(=O)Nc1cccc(-c2nn(Cc3ccc(Cl)cc3)c(=O)c3c(C(C)C)noc23)c1`, the EC50 was 2590 nM.

Turning to `COc1ccc(NC(C)=O)cc1-c1nn([C@@H](C)c2ccc(Cl)cc2)c(=O)c2c(C)noc12`, the EC50 stood at 43 nM.

For the molecule `CNC(=O)c1ccc(OC)c(-c2nn([C@@H](C)c3ccc(Cl)cc3)c(=O)c3c(C)noc23)c1`, the EC50 is 23 nM.
